Values of other authors in US20240200062A1, “METHODS OF TREATING DUCHENNE MUSCULAR DYSTROPHY USING PEPTIDE-OLIGONUCLEOTIDE CONJUGATES” (PepGen Inc., priority 2021, published 2024).

Tested on: dystrophin
Conditions: in vivo; cited from earlier work

## eteplirsen
  levels of dystrophin restoration: approximately 1 % of normal dystrophin levels
